# Data: patent US20210139453A1, “(HETERO)ARYL SULFONAMIDE COMPOUND AND FORMULATION FOR CONTROLLING HARMFUL ORGANISMS” (Nippon Soda Co., Ltd., priority 2018, published 2021)
# Tested on: Mythimna separata
# Experiment: Efficacy test against Mythimna separata (artificial feed mixed with emulsion)
# Conditions: in vivo
# Description: Five parts of the (hetero)aryl sulfonamide compound of the present invention, 93.6 parts of dimethylformamide and 1.4 parts of a polyoxyethylene alkyl aryl ether were mixed together and dissolved to obtain an emulsion (I) containing 5% of the active ingredient.
# For the control, 93.6 parts of dimethylformamide and 1.4 parts of a polyoxyethylene alkyl aryl ether were mixed together and dissolved to obtain an emulsion (II).
# Insect mortality rate(%)=(number of dead insects/number of test insects)×100 Nematode mortality rate(%)=(number of dead nematodes/number of test nematodes)×100
# First, 0.8 g of a commercially-available artificial feed (Insecta LFS, manufactured by Nosan Corporation) and 1 μl of the emulsion (I) were mixed well, and thereby, a test feed was obtained. Subsequently, 0.2 g of the test feed was placed in each of the treatment areas of a plastic test container (volume: 1.4 ml). Subsequently, two second-instar larvae of Mythimna separata were inoculated into each treatment area, and a plastic lid was placed on the test container to prevent the larvae from escaping. The closed container was placed in a thermostatic chamber at 25° C. On the 5th day therefrom, the insect mortality rate and the amount of feed consumed were checked. The test was repeated.
# In addition, for a control area, the insect mortality rate and the amount of feed consumed were checked in the same manner as that described in Test Example 1, with the exception of replacing the emulsion (I) with the emulsion (II).
row,Compound,insect mortality rate against Mythimna separata [%]
1,O=S(=O)(Nc1cc(C(F)(F)F)ccc1-c1nc2cc(Cl)c(Cl)cc2[nH]1)C(F)(F)F [Compound 2-3],100
2,O=S(=O)(N(c1cc(C(F)(F)F)ccc1-c1nc2cc(C(F)(F)F)ccc2[nH]1)S(=O)(=O)C(F)(F)F)C(F)(F)F [Compound 2-5],100
3,O=S(=O)(Nc1cc(C(F)(F)F)ccc1-c1nc2cc(C(F)(F)F)ccc2[nH]1)C(F)(F)F [Compound 2-6],100
4,O=S(=O)(Nc1cc(C(F)(F)F)ccc1-c1nc2cc(F)c(F)cc2[nH]1)C(F)(F)F [Compound 2-8],100
5,O=S(=O)(Nc1cc(F)c(F)cc1-c1nc2cc(F)c(F)cc2[nH]1)C(F)(F)F [Compound 2-9],100
6,CCS(=O)(=O)Nc1cc(C(F)(F)F)ccc1-c1nc2cc(F)c(F)cc2[nH]1 [Compound 2-14],100
7,O=S(=O)(Nc1cc(C(F)(F)F)ccc1-n1cnc(-c2ccc(Br)cc2)n1)C(F)(F)F [Compound 2-15],100
8,O=S(=O)(Nc1cc(C(F)(F)F)ccc1-n1cc(-c2ccc(Cl)cc2)cn1)C(F)(F)F [Compound 2-16],100
9,CCS(=O)(=O)Nc1cc(C(F)(F)F)ccc1-n1cnc(-c2ccc(Br)cc2)n1 [Compound 2-17],100
10,O=S(=O)(Nc1cc(C(F)(F)F)ccc1-n1ccc(-c2ccc(Cl)cc2)n1)C(F)(F)F [Compound 2-18],100
11,O=S(=O)(Nc1cc(C(F)(F)F)ccc1-n1ccc(-c2ccc(C(F)(F)F)cc2)n1)C(F)(F)F [Compound 2-22],100
12,O=S(=O)(Nc1cc(C(F)(F)F)ccc1-c1nc(-c2ccc(Cl)cc2)no1)C(F)(F)F [Compound 2-25],100
13,O=S(=O)(Nc1cc(C(F)(F)F)ccc1-c1ccc(C(F)(F)F)cn1)C(F)(F)F [Compound 2-36],100
14,O=S(=O)(CC(F)(F)F)Nc1cc(C(F)(F)F)cnc1-n1ccc(C(F)(F)F)n1 [Compound 3-8],100
15,Cc1c(Br)c(C(F)(F)F)nn1-c1ncc(C(F)(F)F)cc1NS(=O)(=O)C(F)(F)F [Compound 3-46],100
16,O=S(=O)(Nc1cc(C(F)(F)F)cnc1-c1cccc(C(F)(F)F)n1)C(F)(F)F [Compound 3-47],100
